Consider one molecule from article PMC2678990, “Stilbene glycosides are natural product inhibitors of FGF-2-induced angiogenesis” (BMC Cell Biology, 2009).

The subject of one assay is phospho-ERK1/2 in BAEC. Description: Western blot of ERK1/2 phosphorylation. It is filed as cell-based, bovine. Conditions: BAEC; FGF-2 25 ng/ml; Western blot. On the procedure:
Figure 9 (A) Western blots of p-ERK-1 and -2 were performed on BAEC treated with compound 1 as described below. (B) The bar charts show relative protein expression compared to the control given an arbitrary value of 1.0. All experiments were performed at least twice and a representative example is shown. Lane 1 control, lane 2 FGF-2 (25 ng/ml), lane 3 compound 1 ([…]), lane 4 compound 1 (14.3 μM) + FGF-2, lane 5 compound 1 (28.6 μM), lane 6 compound 1 (28.6 μM) + FGF-2.
The method is described in detail elsewhere. In brief, cells were lysed in RIPA buffer, protein concentration determined using the Biorad assay, and approximately 20 μg aliquots separated by 12% SDS-PAGE, electroblotted onto nitrocellulose filters (Hoefer, San Francisco, Ca, USA), blocked overnight with 1% BSA in TBS-Tween and incubated for 4 h at RT with characterised antibodies to phosphor-ERK1/2 (AutogenBioclear, mouse monoclonal, 1:1000). α-Actin (Sigma, UK; 1:1000) was used as a loading control. Filters were washed in TBS-Tween and stained with antibodies to peroxidase-conjugated secondary antibody. Proteins were detected with the ECL system (Amersham, UK). Protein expression was estimated spectrophotometrically from band intensity. Results are semi-quantitative and given a numerical value compared to the weakest observed band assigned an arbitrary value of 1.0. […]

For the next assay, the system named is BAEC. Description: FGF-2-induced proliferation. Conditions: Bos taurus, FGF-2 25 ng/ml, 72 h, NS = inhibition less than 50%. It is filed as cell-based, bovine. On the procedure: (§1) Cells were seeded in triplicate at a concentration of 6.0 × 10^5/ml, in 2 ml of complete medium in 6-well plates. […] Growth factors, FGF-2 (25 ng/ml), EGF (75 ng/ml) and VEGF (10 ng/ml) and test compounds at different concentration were added and cells incubated for a further 72 h. Control wells were treated with 5 μl DMSO. Concentration ranges of test compounds and pre-incubation times were based on pilot studies. After 72 h, cells were washed in PBS, detached in 0.05%w/v trypsin in PBS, and counted on a Coulter counter (Coulter Electronics, Hialeah, FL) set to a threshold of 30 μm. Experiments were performed in triplicate and repeated at least twice.

The test system of assay [1] is human dermal microvascular endothelial cells (HDMEC). Kind of assay: Proliferation without growth factors (15% FBS). It is filed as cell-based. On the procedure: (§2) Cells were seeded in triplicate at a concentration of 6.0 × 10^5/ml, in 2 ml of complete medium in 6-well plates. […] […] Control wells were treated with 5 μl DMSO. Concentration ranges of test compounds and pre-incubation times were based on pilot studies. After 72 h, cells were washed in PBS, detached in 0.05%w/v trypsin in PBS, and counted on a Coulter counter (Coulter Electronics, Hialeah, FL) set to a threshold of 30 μm. Experiments were performed in triplicate and repeated at least twice.

The test system of assay [2] is bovine aortic endothelial cells (BAEC). Kind of assay: Proliferation without growth factors (15% FBS). It is filed as cell-based. As for the experimental part:
as §2

The subject of the next assay is HDMEC. Description: EGF-induced proliferation. It is filed as cell-based, human. The following applies: EGF 75 ng/ml, 72 h, NS = inhibition less than 50%. As for the experimental part: as §1

`COc1cc(C=Cc2ccc(O)cc2)cc(OC2OC(COC3OC(C)C(O)C(O)C3O)C(O)C(O)C2OC2OC(C)C(O)C(O)C2O)c1` (centres unmarked) [Compound 1]: in the assay on phospho-ERK1/2 in BAEC, the “Inhibition of FGF-2-induced ERK1/2 phosphorylation” value is “inhibited”. The IC50 is 48.9 ± 0.4 µM in the assay with BAEC; above 71.5 µM in assay [1] (Homo sapiens, Endothelial cell, NS = overall inhibition less than 50%); above 71.5 µM in assay [2] (Bos taurus, NS = overall inhibition less than 50%); above 71.5 µM in the assay with HDMEC (Homo sapiens). Further, the “Effect on growth in the absence of growth factors” value in assay [1] (1.4–71.5 μM) and in assay [2] (1.4–71.5 μM) was “no significant effect” throughout. The “EGF-induced proliferation, IC50” value with HDMEC is reported as “no significant inhibitory effect”.

The term IC50 denotes the concentration needed to halve the response being measured. Read a high IC50 as a need for much substance.
